Calls of active or inactive are those of the source.
Key:
[1] = target: Ras and Rab interactor 1/Tyrosine-protein kinase ABL1 (Homo sapiens, UniProt P00519+Q13671); assay type: functional;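 further: biochemical TR-FRET dose-response test measuring inhibition of binding between Rin1 and Abl proteins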
[2] = target: Cytochrome P450 3A4 (Homo sapiens, UniProt P08684);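 further: CYP3A4 tested as one member of a cytochrome P450 panel screen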
[3] = target: Cytochrome P450 2D6 (Homo sapiens, UniProt P10635);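 further: CYP2D6 member of a cytochrome P450 panel assay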
Cytochrome P450 2D6, sequence (P10635 whole entry): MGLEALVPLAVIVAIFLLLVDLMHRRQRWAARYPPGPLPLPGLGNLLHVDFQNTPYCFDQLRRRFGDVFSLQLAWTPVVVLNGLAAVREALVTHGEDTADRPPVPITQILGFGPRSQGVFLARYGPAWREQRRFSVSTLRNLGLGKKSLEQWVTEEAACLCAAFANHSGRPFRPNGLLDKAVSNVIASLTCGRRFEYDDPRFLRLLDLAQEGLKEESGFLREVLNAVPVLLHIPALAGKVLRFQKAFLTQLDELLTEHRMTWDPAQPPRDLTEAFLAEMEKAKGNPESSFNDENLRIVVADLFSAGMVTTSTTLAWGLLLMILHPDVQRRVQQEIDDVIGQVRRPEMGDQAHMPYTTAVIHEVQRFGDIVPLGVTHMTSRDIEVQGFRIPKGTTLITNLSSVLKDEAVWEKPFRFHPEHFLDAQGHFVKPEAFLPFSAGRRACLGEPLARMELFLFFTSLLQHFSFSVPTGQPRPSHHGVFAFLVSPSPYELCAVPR

[4] = target: Cytochrome P450 2C9 (Homo sapiens, UniProt P11712)
[5] = target: T1, High affinity choline transporter 1 (Homo sapiens, UniProt Q9GZV3); assay: CHT inhibitors, dose response, cell-based, 5-point CRC, membrane potential dye (AID 504840); assay type: functional
T1 sequence (Q9GZV3 whole entry): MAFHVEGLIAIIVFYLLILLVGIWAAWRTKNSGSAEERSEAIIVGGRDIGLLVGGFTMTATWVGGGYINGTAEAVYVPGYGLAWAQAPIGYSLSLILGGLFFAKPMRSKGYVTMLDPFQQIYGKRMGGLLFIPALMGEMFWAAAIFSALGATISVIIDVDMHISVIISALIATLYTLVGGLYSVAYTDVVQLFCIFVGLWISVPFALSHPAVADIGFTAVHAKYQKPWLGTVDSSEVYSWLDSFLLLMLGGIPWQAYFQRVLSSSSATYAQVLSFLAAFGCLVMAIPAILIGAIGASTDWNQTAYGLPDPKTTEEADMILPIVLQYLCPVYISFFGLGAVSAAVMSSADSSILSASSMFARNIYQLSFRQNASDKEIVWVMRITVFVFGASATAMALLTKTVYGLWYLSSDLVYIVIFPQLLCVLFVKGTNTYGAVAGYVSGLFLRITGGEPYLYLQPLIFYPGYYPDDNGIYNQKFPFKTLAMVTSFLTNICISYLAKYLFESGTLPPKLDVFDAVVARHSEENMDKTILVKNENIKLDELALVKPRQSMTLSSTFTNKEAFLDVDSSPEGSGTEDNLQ

[6] = target: T1, High affinity choline transporter 1; assay: CHT inhibitors, dose response, cell-based, 10-point CRC, membrane potential dye (AID 588401); assay type: functional;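 further: membrane potential dye fluorescence of choline-evoked depolarization via CHT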
[7] = target: Mitogen-activated protein kinase 10 (Homo sapiens, UniProt P53779); assay: Dose response biochemical screening assay for inhibitors of c-Jun N-Terminal Kinase 3 (JNK3). [Related pubchem assays: 746 ]
Mitogen-activated protein kinase 10, sequence (P53779 whole entry): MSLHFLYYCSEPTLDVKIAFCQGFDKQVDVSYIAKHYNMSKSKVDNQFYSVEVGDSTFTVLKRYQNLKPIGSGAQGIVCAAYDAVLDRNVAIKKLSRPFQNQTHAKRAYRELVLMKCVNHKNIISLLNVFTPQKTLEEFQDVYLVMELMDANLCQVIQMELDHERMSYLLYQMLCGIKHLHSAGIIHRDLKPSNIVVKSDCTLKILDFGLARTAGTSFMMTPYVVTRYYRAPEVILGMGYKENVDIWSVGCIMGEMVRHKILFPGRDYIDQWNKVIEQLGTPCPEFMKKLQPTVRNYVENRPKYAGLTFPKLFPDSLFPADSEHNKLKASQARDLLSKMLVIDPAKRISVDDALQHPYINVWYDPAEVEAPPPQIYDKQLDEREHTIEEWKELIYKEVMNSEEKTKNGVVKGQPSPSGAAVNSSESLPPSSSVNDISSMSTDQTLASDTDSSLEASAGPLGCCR

[8] = test system: Streptococcus sp. 'group A'; assay: growth inhibition of control SK(-) GAS strain, dose response, counter-screen for streptokinase expression inhibitor project, luminescence, kanamycin, BacTiterGlo, confirmation (AID 1900); assay type: functional, organism-based
[9] = target: T2, Streptokinase A (Streptococcus pyogenes serotype M1, UniProt P10520); assay: S. pyogenes streptokinase expression inhibitors, potency, dose response, plasminogen activation absorbance, OD405 (AID 1914); assay type: functional, Streptococcus pyogenes M1 GAS;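 further: secreted streptokinase activity via plasminogen activation per viability signal from cell pellet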
T2 sequence (P10520 whole entry): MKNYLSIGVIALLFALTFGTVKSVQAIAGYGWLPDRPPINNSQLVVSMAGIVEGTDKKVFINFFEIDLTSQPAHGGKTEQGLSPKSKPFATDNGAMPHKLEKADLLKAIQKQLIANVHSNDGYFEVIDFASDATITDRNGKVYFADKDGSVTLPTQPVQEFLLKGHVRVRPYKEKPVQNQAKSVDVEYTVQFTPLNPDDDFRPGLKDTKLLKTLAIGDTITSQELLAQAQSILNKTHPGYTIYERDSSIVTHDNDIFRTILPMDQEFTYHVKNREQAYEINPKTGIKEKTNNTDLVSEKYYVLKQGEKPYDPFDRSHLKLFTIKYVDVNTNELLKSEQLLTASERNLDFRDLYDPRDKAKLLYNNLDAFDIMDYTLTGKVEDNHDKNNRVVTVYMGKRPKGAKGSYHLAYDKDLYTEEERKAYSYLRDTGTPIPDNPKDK

[10] = test system: Streptococcus; assay: Group A Streptococcus viability loss, dose response, counter-screen for streptokinase expression inhibitor project, luminescence, BacTiterGlo (AID 1915); assay type: functional, organism-based;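 further: potency for reduction of bacterial viability or growth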
[11] = target: G-protein coupled receptor 55 (Homo sapiens, UniProt Q9Y2T6); assay: GPR55 agonists via beta-arrestin recruitment, primary screen, imaging, U2OS cells, beta-arrestin-GFP redistribution (AID 1961); assay type: functional
[12] = Luminescence Cell-Based Dose Retest to Confirm Inhibitors of Cancer Stem Cells. [Related pubchem assays (depositor defined):AID2717, AID2721]; assay type: functional; conditions: Homo sapiens
[13] = target: T3, Insulin-degrading enzyme (Homo sapiens, UniProt P14735); assay: activators of recombinant IDE enzyme, dose response, counter-screen for IDE activator project, biochemical, fluorescence polarization (AID 588681)
T3 sequence (P14735 whole entry): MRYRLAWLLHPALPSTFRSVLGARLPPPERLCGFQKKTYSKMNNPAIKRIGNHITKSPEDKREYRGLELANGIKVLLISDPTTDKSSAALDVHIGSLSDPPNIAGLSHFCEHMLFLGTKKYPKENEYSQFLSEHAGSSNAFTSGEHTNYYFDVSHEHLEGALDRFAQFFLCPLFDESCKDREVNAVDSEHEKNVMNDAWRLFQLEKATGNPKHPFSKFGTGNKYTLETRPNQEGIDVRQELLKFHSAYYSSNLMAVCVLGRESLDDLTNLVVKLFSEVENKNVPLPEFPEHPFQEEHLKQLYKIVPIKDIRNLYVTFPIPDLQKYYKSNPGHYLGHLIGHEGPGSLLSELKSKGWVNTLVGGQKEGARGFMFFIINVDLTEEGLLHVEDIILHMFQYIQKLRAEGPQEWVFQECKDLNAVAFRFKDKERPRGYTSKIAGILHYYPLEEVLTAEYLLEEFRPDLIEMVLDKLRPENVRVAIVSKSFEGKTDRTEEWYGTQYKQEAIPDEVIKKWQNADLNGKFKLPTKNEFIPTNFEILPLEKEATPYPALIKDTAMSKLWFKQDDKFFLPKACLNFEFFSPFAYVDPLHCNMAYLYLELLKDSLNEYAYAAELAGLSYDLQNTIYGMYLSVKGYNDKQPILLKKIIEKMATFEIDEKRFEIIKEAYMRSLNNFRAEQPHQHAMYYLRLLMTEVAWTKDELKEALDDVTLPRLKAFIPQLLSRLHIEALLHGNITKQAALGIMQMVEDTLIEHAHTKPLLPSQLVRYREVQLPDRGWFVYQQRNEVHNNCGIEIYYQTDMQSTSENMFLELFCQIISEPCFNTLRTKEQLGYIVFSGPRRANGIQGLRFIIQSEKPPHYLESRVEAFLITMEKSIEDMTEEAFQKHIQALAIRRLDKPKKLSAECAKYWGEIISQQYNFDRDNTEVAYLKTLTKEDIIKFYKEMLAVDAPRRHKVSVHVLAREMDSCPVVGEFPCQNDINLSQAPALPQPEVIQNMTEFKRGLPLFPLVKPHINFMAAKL

[14] = target: T3, Insulin-degrading enzyme; assay: activators of endogenous IDE in HEK cells, dose response, cell-based, fluorescence polarization (AID 588439); assay type: functional
[15] = test system: HEK293; assay: HEK cell cytotoxicity by LDH release, dose response, cytotoxicity control for IDE activator project, fluorescence, HEK cells (AID 588440); assay type: functional, cell-based; conditions: Homo sapiens;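 further: cytotoxicity by LDH release measuring loss of membrane integrity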
[16] = test system: HEK293; assay: optical interference in Abeta FP readout, dose response, artefact control for IDE activator project, biochemical, fluorescence polarization (AID 588442); assay type: functional, cell-based; conditions: Homo sapiens
[17] = target: Disintegrin and metalloproteinase domain-containing protein 17 (Homo sapiens, UniProt P78536); assay: ADAM17 protease inhibitors, dose response, counter-screen for ADAM10 exosite inhibitor project, biochemical, quenched FRET substrate (AID 743253)
Disintegrin and metalloproteinase domain-containing protein 17, sequence (P78536 whole entry, the tested form may be a part): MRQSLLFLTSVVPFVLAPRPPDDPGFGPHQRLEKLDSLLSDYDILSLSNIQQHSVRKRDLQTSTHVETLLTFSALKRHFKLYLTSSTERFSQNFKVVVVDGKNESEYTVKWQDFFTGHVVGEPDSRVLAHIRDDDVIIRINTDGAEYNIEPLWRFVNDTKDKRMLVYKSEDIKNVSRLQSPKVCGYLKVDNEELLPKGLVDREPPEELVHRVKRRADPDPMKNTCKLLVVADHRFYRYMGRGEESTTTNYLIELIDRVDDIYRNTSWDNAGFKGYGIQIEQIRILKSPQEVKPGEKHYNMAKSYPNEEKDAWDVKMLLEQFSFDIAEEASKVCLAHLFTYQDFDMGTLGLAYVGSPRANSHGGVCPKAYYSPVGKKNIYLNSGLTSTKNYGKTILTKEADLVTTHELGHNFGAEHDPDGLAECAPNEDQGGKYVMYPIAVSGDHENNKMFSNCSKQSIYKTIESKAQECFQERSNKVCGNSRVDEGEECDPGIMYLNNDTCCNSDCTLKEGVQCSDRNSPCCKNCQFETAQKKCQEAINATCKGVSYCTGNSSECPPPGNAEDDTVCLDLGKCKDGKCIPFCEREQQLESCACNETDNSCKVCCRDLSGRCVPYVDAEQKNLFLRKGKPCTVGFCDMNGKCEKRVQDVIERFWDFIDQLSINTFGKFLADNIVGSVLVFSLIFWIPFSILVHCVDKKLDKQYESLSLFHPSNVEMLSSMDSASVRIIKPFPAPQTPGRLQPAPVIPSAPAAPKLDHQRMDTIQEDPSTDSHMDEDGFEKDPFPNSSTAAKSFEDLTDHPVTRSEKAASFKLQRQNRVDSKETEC

[18] = target: Large T antigen (Simian virus 40, UniProt P03070); assay type: functional, Betapolyomavirus macacae;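 further: Confirmatory-stage PubChem screen for compounds that inhibit SV40 T antigen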
Large T antigen, sequence (P03070 whole entry): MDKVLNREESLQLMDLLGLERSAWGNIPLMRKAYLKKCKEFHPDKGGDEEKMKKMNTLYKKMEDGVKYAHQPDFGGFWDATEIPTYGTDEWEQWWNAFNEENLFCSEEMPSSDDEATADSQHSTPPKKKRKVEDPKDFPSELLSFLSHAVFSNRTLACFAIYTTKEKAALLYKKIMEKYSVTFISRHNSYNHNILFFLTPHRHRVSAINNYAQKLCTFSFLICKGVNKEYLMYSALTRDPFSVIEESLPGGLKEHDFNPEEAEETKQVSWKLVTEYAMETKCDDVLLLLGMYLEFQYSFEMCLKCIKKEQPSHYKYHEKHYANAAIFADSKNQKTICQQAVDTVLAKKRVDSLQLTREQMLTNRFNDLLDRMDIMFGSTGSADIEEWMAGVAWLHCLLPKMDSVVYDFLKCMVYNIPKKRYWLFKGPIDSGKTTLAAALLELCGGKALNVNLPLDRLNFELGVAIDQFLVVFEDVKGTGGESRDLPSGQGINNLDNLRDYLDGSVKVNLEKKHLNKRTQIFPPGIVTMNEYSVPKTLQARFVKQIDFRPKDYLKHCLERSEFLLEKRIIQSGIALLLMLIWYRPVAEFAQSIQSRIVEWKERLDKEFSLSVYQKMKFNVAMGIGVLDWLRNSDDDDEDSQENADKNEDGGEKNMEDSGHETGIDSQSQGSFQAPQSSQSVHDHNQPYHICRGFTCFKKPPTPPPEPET

[19] = cells; assay type: functional
[20] = target: T4, Rac GTPase-activating protein 1 (Homo sapiens, UniProt Q9H0H5); assay: MgcRacGAP GTPase-activating activity inhibitors, confirmation, biochemical, ADP Hunter fluorescence, primary and confirmatory (AID 624330); assay type: functional
T4 sequence (Q9H0H5 whole entry): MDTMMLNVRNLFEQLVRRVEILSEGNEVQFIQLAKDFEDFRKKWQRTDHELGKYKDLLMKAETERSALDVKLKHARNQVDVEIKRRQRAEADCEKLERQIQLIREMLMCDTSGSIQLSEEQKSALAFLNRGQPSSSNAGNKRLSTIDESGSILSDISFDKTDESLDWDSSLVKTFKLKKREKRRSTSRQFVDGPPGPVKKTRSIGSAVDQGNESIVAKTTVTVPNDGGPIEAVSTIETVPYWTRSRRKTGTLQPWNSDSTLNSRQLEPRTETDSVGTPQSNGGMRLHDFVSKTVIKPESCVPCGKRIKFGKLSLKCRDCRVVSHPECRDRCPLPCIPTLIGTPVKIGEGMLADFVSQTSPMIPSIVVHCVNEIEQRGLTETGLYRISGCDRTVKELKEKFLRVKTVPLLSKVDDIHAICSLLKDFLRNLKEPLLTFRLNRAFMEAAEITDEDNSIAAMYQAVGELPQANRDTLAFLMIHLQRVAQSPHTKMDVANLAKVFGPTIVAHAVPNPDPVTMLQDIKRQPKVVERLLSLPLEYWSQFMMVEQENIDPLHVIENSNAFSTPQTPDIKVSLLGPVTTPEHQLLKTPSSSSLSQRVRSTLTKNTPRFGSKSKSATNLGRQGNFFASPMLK

Cytochrome P450 3A4, sequence (P08684 whole entry): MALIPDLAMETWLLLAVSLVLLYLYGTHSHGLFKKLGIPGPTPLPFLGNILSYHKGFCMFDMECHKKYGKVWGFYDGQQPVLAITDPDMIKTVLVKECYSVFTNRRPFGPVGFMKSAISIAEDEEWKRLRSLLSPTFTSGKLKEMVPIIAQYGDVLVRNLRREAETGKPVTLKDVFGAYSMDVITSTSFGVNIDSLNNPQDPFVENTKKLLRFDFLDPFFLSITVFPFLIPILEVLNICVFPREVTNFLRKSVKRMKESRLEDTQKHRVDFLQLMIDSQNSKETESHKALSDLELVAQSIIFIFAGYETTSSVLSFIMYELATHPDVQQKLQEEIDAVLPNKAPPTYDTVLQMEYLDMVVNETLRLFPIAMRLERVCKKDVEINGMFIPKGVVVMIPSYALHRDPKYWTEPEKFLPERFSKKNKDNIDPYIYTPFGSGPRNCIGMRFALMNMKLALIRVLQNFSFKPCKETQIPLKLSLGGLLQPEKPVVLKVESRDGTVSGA
Ras and Rab interactor 1/Tyrosine-protein kinase ABL1, sequence (P00519 whole entry): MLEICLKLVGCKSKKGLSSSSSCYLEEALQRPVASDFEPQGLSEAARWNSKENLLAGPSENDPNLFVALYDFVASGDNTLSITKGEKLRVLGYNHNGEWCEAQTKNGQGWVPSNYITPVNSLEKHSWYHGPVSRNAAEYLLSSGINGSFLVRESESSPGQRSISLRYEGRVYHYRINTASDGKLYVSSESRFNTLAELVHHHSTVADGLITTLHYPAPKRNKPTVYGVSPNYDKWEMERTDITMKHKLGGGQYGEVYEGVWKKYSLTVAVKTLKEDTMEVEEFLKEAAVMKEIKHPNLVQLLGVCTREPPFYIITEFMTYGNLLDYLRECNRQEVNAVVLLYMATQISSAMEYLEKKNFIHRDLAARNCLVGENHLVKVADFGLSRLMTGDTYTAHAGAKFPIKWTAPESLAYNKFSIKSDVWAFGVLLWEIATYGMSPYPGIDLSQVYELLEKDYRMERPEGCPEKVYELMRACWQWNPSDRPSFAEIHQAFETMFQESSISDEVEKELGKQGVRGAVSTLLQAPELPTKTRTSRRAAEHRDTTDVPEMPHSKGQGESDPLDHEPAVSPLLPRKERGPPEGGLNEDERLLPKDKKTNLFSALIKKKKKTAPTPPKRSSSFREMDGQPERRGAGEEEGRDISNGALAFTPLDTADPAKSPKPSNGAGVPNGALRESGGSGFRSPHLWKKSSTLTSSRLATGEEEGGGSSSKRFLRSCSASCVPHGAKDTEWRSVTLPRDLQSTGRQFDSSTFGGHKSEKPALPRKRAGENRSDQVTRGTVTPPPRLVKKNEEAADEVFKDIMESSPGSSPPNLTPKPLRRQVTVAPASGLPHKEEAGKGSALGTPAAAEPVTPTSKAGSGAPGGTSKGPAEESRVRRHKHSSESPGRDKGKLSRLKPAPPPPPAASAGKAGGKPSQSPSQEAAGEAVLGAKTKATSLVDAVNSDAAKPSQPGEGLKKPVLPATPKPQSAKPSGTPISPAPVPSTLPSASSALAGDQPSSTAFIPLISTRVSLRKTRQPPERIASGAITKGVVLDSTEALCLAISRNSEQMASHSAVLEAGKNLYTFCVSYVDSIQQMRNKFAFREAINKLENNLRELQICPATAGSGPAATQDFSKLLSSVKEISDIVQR
Ras and Rab interactor 1/Tyrosine-protein kinase ABL1, sequence (Q13671 whole entry): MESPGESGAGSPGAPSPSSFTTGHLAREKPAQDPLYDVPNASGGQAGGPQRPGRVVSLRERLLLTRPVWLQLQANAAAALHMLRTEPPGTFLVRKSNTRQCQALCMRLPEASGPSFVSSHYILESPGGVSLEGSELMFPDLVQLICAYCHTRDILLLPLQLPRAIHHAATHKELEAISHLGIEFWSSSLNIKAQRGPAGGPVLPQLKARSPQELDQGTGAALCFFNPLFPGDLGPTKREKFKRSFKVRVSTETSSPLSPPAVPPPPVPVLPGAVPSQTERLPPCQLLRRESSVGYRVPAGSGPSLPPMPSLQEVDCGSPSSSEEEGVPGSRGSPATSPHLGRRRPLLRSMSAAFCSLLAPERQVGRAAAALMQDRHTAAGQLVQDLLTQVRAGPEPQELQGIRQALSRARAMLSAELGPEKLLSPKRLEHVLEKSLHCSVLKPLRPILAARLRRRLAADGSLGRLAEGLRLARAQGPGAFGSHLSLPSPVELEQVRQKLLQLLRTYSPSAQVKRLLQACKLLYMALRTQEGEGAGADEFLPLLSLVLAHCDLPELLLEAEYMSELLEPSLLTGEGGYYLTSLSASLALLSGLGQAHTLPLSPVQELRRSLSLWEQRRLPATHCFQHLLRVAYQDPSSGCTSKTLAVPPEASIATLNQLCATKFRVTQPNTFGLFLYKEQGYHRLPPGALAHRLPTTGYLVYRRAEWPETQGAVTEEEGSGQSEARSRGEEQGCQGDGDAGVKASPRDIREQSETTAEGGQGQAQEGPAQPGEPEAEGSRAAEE

In the case of COCCNC(=O)c1cc2c3ccccc3n(C)c2s1, the IC50 [1] is reported as 14.6 µM (inactive), the AC50 [2] is reported as 28.2 µM (inconclusive) and the AC50 [3] is reported as “inconclusive”. For the same compound, the AC50 [4] was “inconclusive”.

For Cc1cc(NS(=O)(=O)c2ccc(NC(=O)C(C)Oc3cccc(C)c3C)cc2)nc(C)n1 (stereo unspecified), the IC50 [5] was 10 µM (active) and the IC50 [6] was 7.23 µM (active).

In the case of O=C(Nc1cccnc1)c1ccc(COc2ccccc2Br)o1, the IC50 [7] is reported as > 93.1 µM (not active), the IC50 [5] is reported as 3.28 µM (active) and the IC50 [6] is reported as 1.5 µM (active).

For C=C(C)COc1ccc(-c2n[nH]cc2Oc2ccc(OC)cc2)c(O)c1, the EC50 [8] was 6.87 µM (active), the EC50 [9] was 37.4 µM (active) and the EC50 [10] was 25.8 µM (active). The EC50 [11] was > 32 µM (inactive), the AC50 [12] was 5.47 µM (active) and the EC50 [13] was > 54.7 µM (inactive). For the same compound, the EC50 [14] was 20.7 µM (inactive), the IC50 [15] was 31.4 µM (inactive) and the EC50 [16] was > 54.7 µM (inactive). For the same compound, the IC50 [17] was 12 µM (inactive).

With C/C(CC(=O)Nc1ccc(N(C)C)cc1)=N\NC(=O)c1ccncc1 the IC50 [18] was 13.7 µM (active), the IC50 [19] was 0.31 µM (active) and the EC50 [13] was 26 µM (inactive). For the same compound, the EC50 [14] was > 54.7 µM (inactive), the IC50 [15] was > 89.2 µM (inactive) and the EC50 [16] was > 55.9 µM (inactive). The IC50 [20] was 56.8 µM (active).

Source: ChEMBL document CHEMBL1201862, “PubChem BioAssay data set” (2004)
